Experiments:
[1] = system: patients with unstable angina/non Q-wave MI; test: Dose ranging study in unstable angina: primary efficacy evaluation (composite of death, AMI, recurrent ischemia); type: in vivo, human; details: for AMI n (%) / Composite endpoint n (%) / Death (not related to bleeding) n (%) / Recurrent ischemia n (%) (Mortara data) / Symptomatic recurrent ischemia n (%): first active injection to Day 9, per protocol excluding insufficient Mortara data
Method: (§1) A double blind, randomized, controlled dose ranging study was performed testing in parallel four fondaparinux sodium daily dose levels (2.5, 4.0, 8.0 and 12.0 mg) and a dose regimen of enoxaparin (1 mg/Kg bid=twice daily). Efficacy (composite parameter of death, AMI, recurrent ischemia) and safety of the respective doses of fondaparinux sodium were assessed in patients with unstable angina/non Q-wave MI. Further, safety and efficacy of the four different dose levels of fondaparinux sodium and enoxaparin 1 mg/Kg bid were compared.
The primary efficacy endpoint consisted of the composite of the following ischeric events starting from first active drug administration up to and including Day 9 (with Day 1 being the day of first active drug administration):
Death from any cause except for death related to bleeding
Acute myocardial infarction (AMI), according to the definition in the protocol
Symptomatic recurrent ischemia (excluding episodes of ischemia during or at any time after CABG (Coronary Artery Bypass Graft) or PTCA (Percutaneous Transluminal Coronary Angioplasty)) or any ischemia on the 48-h continuous 12-lead ECG monitoring (Mortara).
In the event a patient experienced one of these events, the binary composite outcome was regarded as a treatment failure. In contrast, if none of the above events applied, the composite ischemic outcome was considered as a treatment success.
(§2) The primary analysis for efficacy parameters was performed on the per protocol (PP) population. The choice of the patients to be excluded from PP population for efficacy analyses was defined before unblinding the trial.

[2] = system: patients with unstable angina/non Q-wave MI; test: Dose ranging study: secondary efficacy analysis (clinical endpoints); type: in vivo, human; details: for AMI / Death (not related to bleeding) / Death or AMI / Death or AMI or recurrent ischemia (Symptomatic) / Recurrent Ischemia (Symptomatic): first active injection to Day 9, per protocol including insufficient Mortara data
Method: as §1, §2

[3] = system: patients with unstable angina/non Q-wave MI; test: Dose ranging study: safety analysis, adjudicated bleeding events; type: in vivo; details: for Any bleeding event n (%) / Major bleeding event n (%) / Minor bleeding event n (%): first active injection to Day 9, all treated patients
Method: as §1
The primary safety endpoint was the incidence of major bleeding from first active drug administration up to and including Day 9 as adjudicated by a blinded Central Adjudication Committee (CAC). The incidence of any major or minor bleeding was considered as a secondary safety endpoint.
(§3) The safety analysis was performed on the ‘all treated patients’ (ATP) population.

[4] = system: patients with unstable angina/non Q-wave MI; test: Dose ranging study: safety analysis, deaths; type: in vivo, human; details: for Patients with SAE from First injection Leading to death after day 30 / Patients with SAE from First injection Leading to death between first injection and day 30 / Total deaths reported: all treated patients; for Total deaths reported: first active injection onwards
Method: as §1
Other safety endpoints include deaths and all adverse events (latter not reported here).
as §3

Structure (SMILES): CO[C@H]1O[C@H](COS(=O)(=O)O)[C@@H](O[C@@H]2O[C@@H](C(=O)O)[C@@H](O[C@H]3O[C@H](COS(=O)(=O)O)[C@@H](O[C@@H]4O[C@H](C(=O)O)[C@@H](O[C@H]5O[C@H](COS(=O)(=O)O)[C@@H](O)[C@H](O)[C@H]5NS(=O)(=O)O)[C@H](O)[C@H]4O)[C@H](OS(=O)(=O)O)[C@H]3NS(=O)(=O)O)[C@H](O)[C@H]2OS(=O)(=O)O)[C@H](O)[C@H]1NS(=O)(=O)O [Fondaparinux sodium, methyl O-(2-deoxy-2-sulfoamino-6-O-sulfo-α-D-glucopyranosyl)-(1→4)-O-(β-D-glucopyranosyluronic acid)-(1→4)-O-(2-deoxy-2-sulfoamino-3,6-di-O-sulfo-α-D-glucopyranosyl)-(1→4)-O-(2-O-sulfo-α-L-idopyranosyluronic acid)-(1→4)-2-deoxy-2-sulfoamino-6-O-sulfo-α-D-glucopyranoside]
- AMI n (%) ([1]; 2.5 mg daily (N = 203)): 1 (0.5%) n (%)
- Composite endpoint n (%) ([1]; 2.5 mg daily (N = 203)): 61 (30.0%) n (%)
- Death (not related to bleeding) n (%) ([1]; 2.5 mg daily (N = 203)): 2 (1.0%) n (%)
- Recurrent ischemia n (%) (Mortara data) ([1]; 2.5 mg daily (N = 203)): 47 (23.2%) n (%)
- Symptomatic recurrent ischemia n (%) ([1]; 2.5 mg daily (N = 203)): 26 (12.8%) n (%)
- AMI n (%) ([1]; 4 mg daily (N = 177)): 3 (1.7%) n (%)
- Composite endpoint n (%) ([1]; 4 mg daily (N = 177)): 77 (43.5%) n (%)
- Death (not related to bleeding) n (%) ([1]; 4 mg daily (N = 177)): 5 (2.8%) n (%)
- Recurrent ischemia n (%) (Mortara data) ([1]; 4 mg daily (N = 177)): 63 (35.6%) n (%)
- Symptomatic recurrent ischemia n (%) ([1]; 4 mg daily (N = 177)): 33 (18.6%) n (%)
- AMI n (%) ([1]; 8 mg daily (N = 173)): 5 (2.9%) n (%)
- Composite endpoint n (%) ([1]; 8 mg daily (N = 173)): 71 (41.0%) n (%)
- Death (not related to bleeding) n (%) ([1]; 8 mg daily (N = 173)): 1 (0.6%) n (%)
- Recurrent ischemia n (%) (Mortara data) ([1]; 8 mg daily (N = 173)): 55 (31.8%) n (%)
- Symptomatic recurrent ischemia n (%) ([1]; 8 mg daily (N = 173)): 29 (16.8%) n (%)
- AMI n (%) ([1]; 12 mg daily (N = 187)): 4 (2.1%) n (%)
- Composite endpoint n (%) ([1]; 12 mg daily (N = 187)): 65 (34.8 %) n (%)
- Death (not related to bleeding) n (%) ([1]; 12 mg daily (N = 187)): 1 (0.5%) n (%)
- Recurrent ischemia n (%) (Mortara data) ([1]; 12 mg daily (N = 187)): 56 (29.9%) n (%)
- Symptomatic recurrent ischemia n (%) ([1]; 12 mg daily (N = 187)): 28 (15.0%) n (%)
- AMI n (%) ([1]; All doses pooled (N = 740)): 13 (1.8%) n (%)
- Composite endpoint n (%) ([1]; All doses pooled (N = 740)): 274 (37.0%) n (%)
- Death (not related to bleeding) n (%) ([1]; All doses pooled (N = 740)): 9 (1.2%) n (%)
- Recurrent ischemia n (%) (Mortara data) ([1]; All doses pooled (N = 740)): 221 (29.9%) n (%)
- Symptomatic recurrent ischemia n (%) ([1]; All doses pooled (N = 740)): 116 (15.7%) n (%)
- efficacy compared with enoxaparin 1 mg/Kg bid ([1]; all fondaparinux sodium doses): at least as effective as enoxaparin
- incidence of the composite endpoint ([1]; all fondaparinux sodium groups pooled): 37.0%
- dose-response for the primary endpoint ([1]; four fondaparinux sodium groups (2.5, 4.0, 8.0, 12.0 mg)): No dose-response
- AMI ([2]; 2.5 mg daily (N = 210)): 1 (0.5%) n (%)
- Death (not related to bleeding) ([2]; 2.5 mg daily (N = 210)): 2 (1.0%) n (%)
- Death or AMI ([2]; 2.5 mg daily (N = 210)): 3 (1.4%) n (%)
- Death or AMI or recurrent ischemia (Symptomatic) ([2]; 2.5 mg daily (N = 210)): 27 (12.9%) n (%)
- Recurrent Ischemia (Symptomatic) ([2]; 2.5 mg daily (N = 210)): 26 (12.4%) n (%)
- death or AMI compared with the other fondaparinux sodium groups ([2]; 2.5 mg group): fewer patients tended to experience death or AMI
- AMI ([2]; 4 mg daily (N = 185)): 3 (1.6%) n (%)
- Death (not related to bleeding) ([2]; 4 mg daily (N = 185)): 5 (2.7%) n (%)
- Death or AMI ([2]; 4 mg daily (N = 185)): 8 (4.3%) n (%)
- Death or AMI or recurrent ischemia (Symptomatic) ([2]; 4 mg daily (N = 185)): 39 (21.1%) n (%)
- Recurrent Ischemia (Symptomatic) ([2]; 4 mg daily (N = 185)): 33 (17.8%) n (%)
- AMI ([2]; 8 mg daily (N = 183)): 5 (2.7%) n (%)
- Death (not related to bleeding) ([2]; 8 mg daily (N = 183)): 1 (0.5%) n (%)
- Death or AMI ([2]; 8 mg daily (N = 183)): 6 (3.3%) n (%)
- Death or AMI or recurrent ischemia (Symptomatic) ([2]; 8 mg daily (N = 183)): 33 (18.0%) n (%)
- Recurrent Ischemia (Symptomatic) ([2]; 8 mg daily (N = 183)): 29 (15.8%) n (%)
- AMI ([2]; 12 mg daily (N = 199)): 4 (2.0%) n (%)
- Death (not related to bleeding) ([2]; 12 mg daily (N = 199)): 1 (0.5%) n (%)
- Death or AMI ([2]; 12 mg daily (N = 199)): 5 (2.5%) n (%)
- Death or AMI or recurrent ischemia (Symptomatic) ([2]; 12 mg daily (N = 199)): 30 (15.1%) n (%)
- Recurrent Ischemia (Symptomatic) ([2]; 12 mg daily (N = 199)): 28 (14.1%) n (%)
- Any bleeding event n (%) ([3]; 2.5 mg daily (N = 229)): 9 (3.9%) n (%)
- Major bleeding event n (%) ([3]; 2.5 mg daily (N = 229)): 0 (0.0%) n (%)
- Minor bleeding event n (%) ([3]; 2.5 mg daily (N = 229)): 9 (3.9%) n (%)
- major bleedings observed ([3]; 2.5 mg group): No major bleedings were observed
- Any bleeding event n (%) ([3]; 4 mg daily (N = 222)): 12 (5.4%) n (%)
- Major bleeding event n (%) ([3]; 4 mg daily (N = 222)): 3 (1.4%) n (%)
- Minor bleeding event n (%) ([3]; 4 mg daily (N = 222)): 9 (4.1%) n (%)
- Any bleeding event n (%) ([3]; 8 mg daily (N = 223)): 12 (5.4%) n (%)
- Major bleeding event n (%) ([3]; 8 mg daily (N = 223)): 4 (1.8%) n (%)
- Minor bleeding event n (%) ([3]; 8 mg daily (N = 223)): 9 (4.0%) n (%)
- Any bleeding event n (%) ([3]; 12 mg daily (N = 238)): 11 (4.6%) n (%)
- Major bleeding event n (%) ([3]; 12 mg daily (N = 238)): 1 (0.4%) n (%)
- Minor bleeding event n (%) ([3]; 12 mg daily (N = 238)): 10 (4.2%) n (%)
- differences between fondaparinux sodium groups and the enoxaparin group for safety parameters ([3]; all dose groups): No significant differences
- differences between treatment groups for major, minor or any bleeding ([3]; all dose groups vs enoxaparin): No relevant differences
- Patients with SAE from First injection Leading to death after day 30 ([4]; 2.5 mg daily (N = 229)): 1 (0.4%) Number (%)
- Patients with SAE from First injection Leading to death between first injection and day 30 ([4]; 2.5 mg daily (N = 229)): 3 (1.3%) Number (%)
- Total deaths reported ([4]; 2.5 mg daily (N = 229)): 4 (1.7%) Number (%)
- Patients with SAE from First injection Leading to death after day 30 ([4]; 4 mg daily (N = 222)): 3 (1.4%) Number (%)
- Patients with SAE from First injection Leading to death between first injection and day 30 ([4]; 4 mg daily (N = 222)): 7 (3.2%) Number (%)
- Total deaths reported ([4]; 4 mg daily (N = 222)): 10 (4.5%) Number (%)
- Patients with SAE from First injection Leading to death after day 30 ([4]; 8 mg daily (N = 223)): 2 (0.9%) Number (%)
- Patients with SAE from First injection Leading to death between first injection and day 30 ([4]; 8 mg daily (N = 223)): 4 (1.8%) Number (%)
- Total deaths reported ([4]; 8 mg daily (N = 223)): 6 (2.7%) Number (%)
- Patients with SAE from First injection Leading to death after day 30 ([4]; 12 mg daily (N = 238)): 1 (0.4%) Number (%)
- Patients with SAE from First injection Leading to death between first injection and day 30 ([4]; 12 mg daily (N = 238)): 6 (2.5%) Number (%)
- Total deaths reported ([4]; 12 mg daily (N = 238)): 7 (2.9%) Number (%)
- differences in the percentage of deaths between treatment groups ([4]; all dose groups vs enoxaparin): No relevant differences

Reference: patent US20040248848A1, “Use of specific dose of fondaparinux sodium for the treatment of acs” (priority 2004, published 2004)
